Measurements as given in paper PMC3961306, “Comparison of the Cancer Gene Targeting and Biochemical Selectivities of All Targeted Kinase Inhibitors Approved for Clinical Use” (PLoS ONE, 2014).

Columns and labels:
Test in all cases: Kinase profiling in a biochemical assay panel (mobility shift assays and ELISA), %-inhibition at 1 μM; selectivity entropy
[1] = target: panel of more than 300 wild-type and mutant kinases (313 kinase panel) (Homo sapiens, UniProt O00311)
[2] = target: T1, panel of more than 300 wild-type and mutant kinases (313 kinase panel) (Homo sapiens, UniProt O43781)
T1 sequence (O43781 1-588): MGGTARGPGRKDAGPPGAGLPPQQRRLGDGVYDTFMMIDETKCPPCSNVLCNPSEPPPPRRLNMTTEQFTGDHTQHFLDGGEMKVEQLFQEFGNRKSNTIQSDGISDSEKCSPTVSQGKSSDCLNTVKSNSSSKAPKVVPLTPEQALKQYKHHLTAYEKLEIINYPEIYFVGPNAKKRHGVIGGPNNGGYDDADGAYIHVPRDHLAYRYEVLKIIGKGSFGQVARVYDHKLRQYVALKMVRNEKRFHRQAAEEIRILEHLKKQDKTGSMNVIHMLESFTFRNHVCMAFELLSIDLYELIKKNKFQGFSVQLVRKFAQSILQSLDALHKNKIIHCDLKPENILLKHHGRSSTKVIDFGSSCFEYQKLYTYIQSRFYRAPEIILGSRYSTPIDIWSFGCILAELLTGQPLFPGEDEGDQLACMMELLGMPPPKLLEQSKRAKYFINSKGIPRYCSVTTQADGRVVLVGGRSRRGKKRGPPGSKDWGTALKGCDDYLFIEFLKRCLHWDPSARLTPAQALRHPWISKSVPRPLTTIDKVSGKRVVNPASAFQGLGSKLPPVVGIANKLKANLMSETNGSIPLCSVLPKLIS

[3] = target: panel of more than 300 wild-type and mutant kinases (313 kinase panel) (Homo sapiens, UniProt P06493)
[4] = target: panel of more than 300 wild-type and mutant kinases (313 kinase panel) (Homo sapiens, UniProt P48729)
[5] = target: T2, panel of more than 300 wild-type and mutant kinases (313 kinase panel) (Homo sapiens, UniProt P54760)
T2 sequence (P54760 16-987): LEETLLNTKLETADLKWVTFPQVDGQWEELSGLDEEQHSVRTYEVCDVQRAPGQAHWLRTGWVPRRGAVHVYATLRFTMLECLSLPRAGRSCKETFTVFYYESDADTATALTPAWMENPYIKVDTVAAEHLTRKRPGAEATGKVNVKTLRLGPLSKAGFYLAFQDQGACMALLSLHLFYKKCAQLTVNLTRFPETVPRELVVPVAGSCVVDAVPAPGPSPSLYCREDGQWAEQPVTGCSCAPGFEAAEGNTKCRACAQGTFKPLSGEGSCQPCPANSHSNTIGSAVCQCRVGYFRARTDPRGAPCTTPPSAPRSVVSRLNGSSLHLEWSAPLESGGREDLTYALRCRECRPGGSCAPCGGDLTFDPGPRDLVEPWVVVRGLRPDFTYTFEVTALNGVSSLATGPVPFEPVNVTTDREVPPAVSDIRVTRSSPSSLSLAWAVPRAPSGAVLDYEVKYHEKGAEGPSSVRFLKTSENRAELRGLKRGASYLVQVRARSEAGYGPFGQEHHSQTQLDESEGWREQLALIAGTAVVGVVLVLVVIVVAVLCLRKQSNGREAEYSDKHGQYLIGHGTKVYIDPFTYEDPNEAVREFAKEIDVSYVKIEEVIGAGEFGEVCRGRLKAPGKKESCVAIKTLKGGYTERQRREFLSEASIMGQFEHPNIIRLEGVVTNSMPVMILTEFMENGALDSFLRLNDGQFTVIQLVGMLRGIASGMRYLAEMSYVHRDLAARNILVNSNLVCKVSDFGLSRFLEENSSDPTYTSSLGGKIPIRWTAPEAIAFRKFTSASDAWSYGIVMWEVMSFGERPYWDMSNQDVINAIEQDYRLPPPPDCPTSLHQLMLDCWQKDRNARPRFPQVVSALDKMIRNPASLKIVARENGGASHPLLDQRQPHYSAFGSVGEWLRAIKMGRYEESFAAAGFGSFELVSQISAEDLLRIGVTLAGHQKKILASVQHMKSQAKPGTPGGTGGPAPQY

[6] = target: T3, panel of more than 300 wild-type and mutant kinases (313 kinase panel) (Homo sapiens, UniProt Q8IW41)
T3 sequence (Q8IW41 1-473): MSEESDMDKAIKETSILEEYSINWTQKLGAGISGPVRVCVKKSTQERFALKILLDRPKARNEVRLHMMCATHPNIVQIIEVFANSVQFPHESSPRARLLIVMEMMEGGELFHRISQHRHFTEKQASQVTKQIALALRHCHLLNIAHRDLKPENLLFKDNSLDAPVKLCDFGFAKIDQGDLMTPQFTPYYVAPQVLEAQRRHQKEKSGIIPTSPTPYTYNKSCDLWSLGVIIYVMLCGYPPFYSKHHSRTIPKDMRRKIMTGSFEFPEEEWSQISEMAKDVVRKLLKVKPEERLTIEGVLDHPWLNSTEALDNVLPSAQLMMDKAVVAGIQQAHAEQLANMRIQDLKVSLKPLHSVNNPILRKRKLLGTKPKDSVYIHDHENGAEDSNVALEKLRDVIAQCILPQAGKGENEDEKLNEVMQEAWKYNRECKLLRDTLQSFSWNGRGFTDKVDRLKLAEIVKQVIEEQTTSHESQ

[7] = kinase CDC2/CycB1, 1 μM compound
[8] = kinase MAPKAPK5, compound at 1 μM

SMILES	%-inhibition, CDC7/ASK ([1]; kinase CDC7/ASK, 1 μM compound) [%]	%-inhibition of DYRK3 ([2]; kinase DYRK3, compound at 1 μM) [%]	%-inhibition, CDC2/CycB1 [3, 7] [%]	%-inhibition, CK1α ([4]; kinase CK1α, 1 μM compound) [%]	%-inhibition of EPHB4 ([5]; kinase EPHB4, compound at 1 μM) [%]	%-inhibition of MAPKAPK5 [6, 8] [%]	%-inhibition of MAPKAPK5 ([6]; 1 µM) [%]	%-inhibition, CDC7/ASK ([1]; 1 µM) [%]	%-inhibition of DYRK3 ([2]; 1 µM) [%]	%-inhibition, CDC2/CycB1 ([3]; 1 µM) [%]	%-inhibition, CK1α ([4]; 1 µM) [%]	%-inhibition of EPHB4 ([5]; 1 µM) [%]
CO[C@H]1C[C@@H]2CC[C@@H](C)[C@@](O)(O2)C(=O)C(=O)N2CCCC[C@H]2C(=O)O[C@H]([C@H](C)C[C@@H]2CC[C@@H](OC(=O)C(C)(CO)CO)[C@H](OC)C2)CC(=O)[C@H](C)/C=C(\C)[C@@H](O)[C@@H](OC)C(=O)[C@H](C)C[C@H](C)/C=C/C=C/C=C/1C [temsirolimus]	-6	-0.454	-23	-14	-9	-9	–	–	–	–	–	–
CNC(=O)c1cc(Oc2ccc(NC(=O)Nc3ccc(Cl)c(C(F)(F)F)c3)c(F)c2)ccn1 [regorafenib]	-5.36	15	0.529	-7.56	80	-9	–	–	–	–	–	–
CO[C@H]1C[C@@H]2CC[C@@H](C)[C@@](O)(O2)C(=O)C(=O)N2CCCC[C@H]2C(=O)O[C@H]([C@H](C)C[C@@H]2CC[C@@H](OCCO)[C@H](OC)C2)CC(=O)[C@H](C)/C=C(\C)[C@@H](O)[C@@H](OC)C(=O)[C@H](C)C[C@H](C)/C=C/C=C/C=C/1C [everolimus]	-6	-11	-19	-11	-4.49	-9	–	–	–	–	–	–
COc1cc2nccc(Oc3ccc(NC(=O)C4(C(=O)Nc5ccc(F)cc5)CC4)cc3)c2cc1OC [cabozantinib]	-3.4	4	-17	-9	96	-5	–	–	–	–	–	–
Cc1nc(Nc2ncc(C(=O)Nc3c(C)cccc3Cl)s2)cc(N2CCN(CCO)CC2)n1 [dasatinib]	3	–	4.44	-8.44	–	–	–	–	–	–	–	–
COc1cc2c(Nc3ccc(Br)cc3F)ncnc2cc1OCC1CCN(C)CC1 [vandetanib]	-6.41	-5	-0.952	-3.59	–	-0.931	–	–	–	–	–	–
CC(C)(C)c1nc(-c2cccc(NS(=O)(=O)c3c(F)cccc3F)c2F)c(-c2ccnc(N)n2)s1 [dabrafenib]	-6	-5.68	–	13	–	–	–	–	–	–	–	–
Cc1ccc(Nc2nccc(N(C)c3ccc4c(C)n(C)nc4c3)n2)cc1S(N)(=O)=O [pazopanib]	-3.46	-4.54	3	-4	16	-4	–	–	–	–	–	–
N#CC[C@H](C1CCCC1)n1cc(-c2ncnc3[nH]ccc23)cn1 [ruxolitinib]	5.36	-9	0.106	1.86	0.569	–	-4.52	–	–	–	–	–
C[C@@H](Oc1cc(-c2cnn(C3CCNCC3)c2)cnc1N)c1c(Cl)ccc(F)c1Cl [crizotinib]	–	14	19	-1.36	83	-3.19	–	–	–	–	–	–
CN(C)C/C=C/C(=O)Nc1cc2c(Nc3ccc(F)c(Cl)c3)ncnc2cc1O[C@H]1CCOC1 [afatinib]	–	29	–	–	–	–	–	–	–	–	–	–
CCCS(=O)(=O)Nc1ccc(F)c(C(=O)c2c[nH]c3ncc(-c4ccc(Cl)cc4)cc23)c1F [vemurafenib]	-7	5	10	-4.34	3.73	12	–	–	–	–	–	–
O=S(=O)(c1cccc2cnccc12)N1CCCNCC1 [fasudil]	-7	26	6.46	–	-5.34	-1.65	–	–	–	–	–	–
CS(=O)(=O)CCNCc1ccc(-c2ccc3ncnc(Nc4ccc(OCc5cccc(F)c5)c(Cl)c4)c3c2)o1 [lapatinib]	3	-2.24	0.355	3.6	-0.865	-2.68	–	–	–	–	–	–
C#Cc1cccc(Nc2ncnc3cc(OCCOC)c(OCCOC)cc23)c1 [erlotinib]	–	–	–	–	–	–	1.53	0.905	22	6	10	33
Cc1cn(-c2cc(NC(=O)c3ccc(C)c(Nc4nccc(-c5cccnc5)n4)c3)cc(C(F)(F)F)c2)cn1 [nilotinib]	-7	-1.09	1	–	–	-4.26	–	–	–	–	2	91
COc1cc(Nc2c(C#N)cnc3cc(OCCCN4CCN(C)CC4)c(OC)cc23)c(Cl)cc1Cl [bosutinib]	-5.36	12	-1.38	–	96	0	–	–	–	–	–	–
CC(=O)Nc1cccc(-n2c(=O)n(C3CC3)c(=O)c3c(Nc4ccc(I)cc4F)n(C)c(=O)c(C)c32)c1 [trametinib]	-8	-10	8	3	-3.38	-2.22	–	–	–	–	–	–
Cc1ccc(C(=O)Nc2ccc(CN3CCN(C)CC3)c(C(F)(F)F)c2)cc1C#Cc1cnc2cccnn12 [ponatinib]	-7.45	50	33	8	101	–	–	–	–	–	–	–
